In PMC11931052, “Efficacy of dispirotripiperazine PDSTP in a golden Syrian hamster model of SARS-CoV-2 infection” (Frontiers in Microbiology, 2025):
Where “and” joins values, the source holds several entries; their conditions need not be identical. Equal entries are not always repeated. Entries after “also recorded” stand apart in the source; their conditions may differ.

Experiments:
[1] = system: Salmonella typhimurium strains TA 97, TA 98 and TA 100; assay: Ames test (Salmonella/microsome test); settings: 0.1 to 1000 µg/ cup; MA+ and MA-
Procedure: PDSTP doses tested: 0.1 to 1000 µg/ cup.
Test subjects: Salmonella typhimurium strains TA 97, TA 98 and TA 100.
Metabolic activation: MA+ and MA-.

[2] = system: SARS-CoV-2 B.1.1 GR MM1/2020/Aug-21 clinical isolate; assay: Golden Syrian hamster model of SARS-CoV-2-induced pneumonia; format: in vivo; settings: for Body weight: day 0
HCoV-229E = assay: Plaque reduction assay, HCoV-229E in Vero E6 cells; format: cell-based
Procedure: Vero E6 cells were incubated in the presence of PDSTP and reference compounds (100.0, 20.0, 4.0, and 0.8 μM concentrations) for 1 h at 37°C in a 5% CO2 and then infected for 1 h with 250 μL of the corresponding virus (SARS-CoV-2 PV10734 or HCoV-229E) dilutions to obtain 50–100 PFU/well. The plates were then incubated for 1 h at 37°C in a 5% CO2 atmosphere. Following the removal of the unabsorbed virus, 400 μL of the medium (D-MEM with L-glutamine, 4,500 mg/L D-glucose, and 1% inactivated FBS) containing 0.75% methyl-cellulose (M0512, viscosity 4,000 cP, Sigma-Aldrich, United States) and the serial dilutions of the compounds were added and incubated for 4 (SARS-CoV-2) or 2 (HCoV-229E) days at 37°C in a 5% CO2 atmosphere. Subsequently, the cells were fixed and stained with a 0.2% crystal violet solution (V5265, Sigma-Aldrich, United States) and then the number of plaques was calculated. The degree of cell growth/viability and viral multiplication at each drug concentration tested was expressed as a percentage of the untreated control. Concentrations resulting in 50% inhibition (CC50 or EC50) were determined using linear regression analysis.

[3] = Acute toxicity, intraperitoneal administration, mice; settings: both sexes, mouse, in vivo, ip, Mice (M/F)
[4] = system: SARS-CoV-2 clinical isolate 35245; assay: Plaque reduction assay, SARS-CoV-2 35245; format: cell-based; settings: Severe acute respiratory syndrome coronavirus 2, read-out: Antiviral activity IC50 against coronaviruses, SARS-CoV-2 clinical isolate 35245, PR
[5] = Reproductive toxicity: embryotoxicity study; format: in vivo, white laboratory rats; settings: 10% solution, daily topical application, days 6 to 19 of gestation
Description: (§1) PDSTP doses tested: 10% solution
(§2) Test subjects: white laboratory rats of both sexes
Pregnant rats from 6 to 19 days of gestation received daily topical application of PDSTP on 5% of the body surface area (3x5 cm area).

[6] = Acute toxicity, intragastric administration, mice; format: in vivo; settings: maximum dose 1000 mg/kg
[7] = Chronic toxicity, intranasal administration, rats; format: in vivo; settings: repeated administration for 14 days, 10-200 mg/kg
[8] = Allergenicity study, delayed-type hypersensitivity, mice; format: in vivo; settings: SWA x C57BL/6 mice
SARS-COV-2 PV10734 = assay: Time-of-addition and cell pre-treatment assay in Vero cells; format: cell-based
[9] = Acute toxicity, intragastric administration, rats; format: in vivo; settings: maximum dose 5000 mg/kg
[10] = Acute toxicity, topical application, mice; format: in vivo; settings: for LD50: acute toxicity, topical application
[11] = Acute toxicity, topical application, rats; format: in vivo; settings: for LD50: acute toxicity, topical application
HCoV-OC43 = assay: MTT test, HCoV-OC43 in Vero-76 cells; format: cell-based; settings: Betacoronavirus 1, OC43, Vero 76, read-out: IC50 (HCoV-OC43)
mouse bone marrow cells = assay: Chromosomal aberrations in mouse bone marrow cells; format: in vivo, F1 hybrids of SWAxC57BL/6 mice; settings: 400 mg/kg and 1000 mg/kg topically
Procedure: PDSTP doses tested: 400 mg/kg and 1000 mg/kg
Test subjects: F1 hybrids of SWAxC57BL/6 mice.
Method of administration: topically

[12] = Reproductive toxicity: postnatal development of F1 generation offspring; format: in vivo, white laboratory rats; settings: female rats received PDSTP from the 6th day of gestation to delivery
Procedure: as §1, §2
During the study of postnatal development and fertility of F1 generation offspring born from female rats that received PDSTP from the 6th day of gestation to delivery, the rates of physical development, the rate of maturation of sensory-motor reflexes and emotional-motor behavior, as well as fertility were evaluated in comparison with rats born from intact females.

[13] = Cytotoxicity (MTT test) in Vero E6 cell line; format: cell-based, African Green Monkey (Cercopithecus aethiops); settings: African green monkey, mean ± SD, three independent experiments
Procedure: The microtetrazolium test (MTT test) was used to study the cytotoxicity of the compounds. Vero cells were seeded in 96-well plates at an initial density of 3×10^5 cells/mL, in Gibco Dulbecco’s Modified Eagle Medium supplemented with L-glutamine and 25 mg/L kanamycin, and 10 % fetal bovine serum (FBS) (DMEM, Thermo Fisher Scientific, Waltham, MA USA). Cell cultures were then incubated at 37 °C in a 5 % CO2 atmosphere, in the absence or presence of serial dilutions of test compounds. The test medium used for the cytotoxic assay as well as for the antiviral assay contained 1 % of the appropriate serum. Cell viability was determined after 72 h at 37 °C by the MTT method as previously reported. The cell viability was expressed as a percentage of the control. The 50% cytotoxic concentration (CC50) of each compound was defined as the concentration of the compound that reduced the absorbance (OD570) of the treated cells to 50% when compared with that of untreated cells. CC50 mean values were calculated from at least three independent experiments.

[14] = system: herpes simplex epithelial keratitis; parameters: method as in Alimbarova et al., 2022; settings: rabbit model; ref Alimbarova et al., 2022; cited from earlier work
[15] = 10 mg/kg, severity score 0 to 6
[16] = maximum regulated amount applied to the skin

With `Cc1nc(N2CC[N+]3(CC2)CC[N+]2(CCNCC2)CC3)c([N+](=O)[O-])c(N2CC[N+]3(CC2)CC[N+]2(CCNCC2)CC3)n1.Cl.Cl.O.O.O.O.O.O.O.O.O.[Cl-].[Cl-].[Cl-].[Cl-]` [PDSTP, 3,3′-(2-methyl-5-nitropyrimidine-4,6-diyl)bis-3,12-diaza-6,9-diazonia-dispiro[5.2.5.2]hexadecane tetrachloride dihydrochloride nonahydrate] the “Mutagenic activity (Ames test)” value [1] was “no mutagenic activity”, the “Animals with completely reduced SARS-CoV-2-induced lung pathology” value ([2]; 10 mg/kg) was “three” and the Body weight ([2]; 10 mg/kg) was 100,7±0,3 gram. For the same molecule, the “Animals with lung severity score "mild"” value [2, 15] was “two”, the “Animals with lung severity score "none"” value [2, 15] was “three out of six” and the “Animals with completely reduced SARS-CoV-2-induced lung pathology” value ([2]; 20 mg/kg) was “two”. The Body weight ([2]; 20 mg/kg) was 94,1±0,4 gram, the Body weight ([2]; 40 mg/kg) was 96,7±0,3 gram and the “Alveolar edema (histopathology)” value ([2]; 10 or 20 mg/kg) was “moderate”. For the same molecule, the “Reduction in lung viral titer vs negative control” value ([2]; […], not statistically significant) was 1.5 log10, the “Reduction of viral RNA copy levels in lung tissue vs vehicle” value ([2]; […], statistically non-significant) was 2.2 log10 and the Core body temperature ([2]; all animal groups) was “within the normal range”. The Mortality ([2]; all animal groups) was “None of the animals died”, the Body weight loss ([2]; hamster, in vivo) was “no more than 10%” and the “Reduction of viral RNA copy levels in lung tissue vs vehicle” value ([2]; hamster, in vivo) was 1.6 log10 and 2.0 log10. The “Viral RNA copy levels in turbinate tissue” value ([2]; hamster, in vivo) was “statistically significantly diminished”, the “Antiviral activity against alphacoronavirus HCoV-229E” value (HCoV-229E) was “no in vitro activity; also recorded: No antiviral activity was detected” and the IC50 (HCoV-229E; Human coronavirus 229E, Vero C1008, Vero E6, mean ± SD, read-out: Antiviral activity IC50 against coronaviruses, HCoV-229E, PR) was over 100 µM. For the same molecule, the LD50 [3] was 192 mg/kg, the IC50 [4] was 21.4 ± 7.4 µM and the Embryotoxic effect [5] was “no adverse embryotoxic effect”. For the same molecule, the Clinical signs [6] was “piloerection and diarrhea, deterioration of hair coat, decreased motor activity, and decreased body weight”, the Mortality [6] was “The death of animals was not recorded” and the “Toxic effect on organs and systems” value [7] was “toxic effect on organs and systems was not revealed”. For the same molecule, the Delayed-type hypersensitivity [8] was “No delayed-type hypersensitivity was detected”, the “Antiviral activity, pre-treatment and early stages of infection” value (SARS-COV-2 PV10734) was “exhibited antiviral activity” and the “Inhibitory effect at the later stages of infection” value (SARS-COV-2 PV10734) was “barely noticeable”. For the same molecule, the Clinical signs [9] was “piloerection and diarrhea, deterioration of hair coat, decreased motor activity, and decreased body weight”, the Mortality [9] was “The death of animals was not recorded” and the LD50 [10] was “greater than 31.25 mg/cm^2”. The “Toxicity and local irritant effects on skin” value [10, 16] was “No manifestations of toxicity and local irritant effects were observed”, the LD50 ([10]; mouse, in vivo, topical or ocular, 2500 mg/kg, read-out: LD50) was over 2500 mg/kg and the LD50 [11] was “greater than 31.25 mg/cm^2”. The “Toxicity and local irritant effects on skin” value [11, 16] was “No manifestations of toxicity and local irritant effects were observed”, the LD50 ([11]; rat, in vivo, topical or ocular, 2500 mg/kg, read-out: LD50) was over 2500 mg/kg and the IC50 (HCoV-OC43) was 0.7 ± 0.4 µM. The “Induction of chromosomal aberrations” value (mouse bone marrow cells) was “did not reveal the ability to induce chromosomal aberrations”, the “Effect on fertility of F1 generation offspring” value [12] was “No statistically significant effect” and the “Effect on postnatal development of F1 generation offspring” value [12] was “does not adversely affect the studied parameters”. The CC50 at 72 h [13] was 183 ± 40.5 µM and the “Reduction of mean progression and corneal lesions” value [14] was “comparable to traditional aciclovir”.
